Reference: patent US10960088B2, “Macrocycles, cobalt and iron complexes of same, and methods of making and using same” (The Research Foundation for The State University of New York, priority 2013, dated 2021)
Values joined by “and” are separate entries in the source; they are usually repeats but may differ in a detail not shown here. Equal entries are not always repeated. “Also recorded” adds a separate entry of the source.

Columns and labels:
[1] = Redox potentials of iron complexes (no method given); format: physicochemical
Cyclic voltammetry = format: physicochemical; settings: versus NHE, in water, 1 M KCl
Protocol: Cyclic voltammograms were obtained using a Princeton Applied Research Model 263A Potentiostat/Galvanostat and PowerSuite software program. CHI 104 Glassy Carbon Disk working electrode from CH Instruments, Inc. (Austin, Tex.) was used. Cyclic Voltammetry. […] (FIG. 6). The external ferrocyanide standard with Eo (Fe(III)/Fe(II))=303±10 mV vs. NHE contained 1.0 mM K4Fe(CN)6 and 1.00 M KCl under argon. The redox potential of the complex calculated based on a NHE reference using eq. 6: E^o(vs. NHE)=E^o(vs. Ag/AgCl)+167 mV, eq. 6 Determination of Magnetic Moment.

[2] = Kinetics of Co(II) oxidation and Co(III) reduction by UV-vis; format: physicochemical
Source text: Materials and methods. Instrumentation. Varian Inova 400 MHz and Inova 500 MHz NMR spectrometers were used to collect ^1H NMR spectra. ^13C NMR spectra were acquired using a Varian Mercury 300 MHz NMR spectrometer operating at 75 MHz. The measurements of magnetic susceptibility and CEST data were acquired on Varian Inova 500 MHz NMR spectrometer. Temperature of samples during ^1H NMR and CEST experiments was controlled with FTS Systems TC-84 Kinetics Air Jet Temperature Controller. A Thermo Scientific Orion 9826BN NMR micro pH electrode connected to a SympHony SB20 pH meter and the Orion 8115BNUWP Ross-ultra semi micro pH electrode connected to a Titrino 702 pH meter were used for pH measurements. ThermoFinnigan LCQ Advantage IonTrap LC/MS equipped with a Surveyor HPLC system was used to collect mass spectral data. Absorbance spectra of [Co(TPT)]^2+ and [Co(TPT)]^3+, together with the kinetic experiments for the reduction of Co(III) with L-ascorbic acid or sodium dithionite, and for the oxidation of Co(II) with oxygen or sodium peroxydisulfate were measured with a Beckman-Coulter DU 800 UV-vis Spectrophotometer equipped with a Peltier Temperature Controller. Kinetic experiments for the oxidation of Co(II) complex were performed after equilibration of the solutions with a mixture containing 5%, 10%, and 20% of oxygen in nitrogen followed by addition of [Co(TPT)]^2+ in the minimal volume of solvent. All experiments for the reduction of […] were performed under an inert atmosphere of argon. […]

[3] = Effective magnetic moment in solution from magnetic susceptibility (NMR); format: physicochemical; settings: aqueous solution
Protocol: The effective magnetic moment (μeff) was calculated by using a previously known method. 5 mM Co^II complex and 5% t-butanol by volume was placed in a NMR insert while the outer NMR tube contained 5% by volume t-butanol in D2O. The μeff was calculated at 298 K (T) and monitored over a period of 72 hours using the following approach.
The mass susceptibility of solute (χg) was calculated by obtaining the observed frequency shift of the reference (Δf) in Hz, the spectrometer frequency (f) in Hz, the mass of the substance per cm^3 of solution (m), and the mass susceptibility of solvent D2O (χ0=−0.6466×10^−6 cm^3/g). The last term is neglected due to the minimal contribution to mass susceptibility of solute. The molar susceptibility (χm) is the product of χg multiplied by the molecular weight of the Co^II complex.
The effective magnetic moment was calculated by using a previously known method. In a typical experiment, oxygen-free solution of 8-20 mM [Co(TPT)]^2+ in deuterium oxide, pD 7.0, containing 5% tert-butanol by volume was placed in an NMR tube, while a reference solution of 5% tert-butanol (v/v) in deuterium oxide, pD 7.0, was placed into NMR tube insert. All solutions of [Co(TPT)]^2+ were purged with argon and kept in the absence of air. The effective magnetic moment (μeff) was calculated at 298 K (T) using the following equations 7-8. In these equations the mass susceptibility of solute (χg) was calculated by obtaining the observed frequency shift of the reference (Δf) in Hz, the spectrometer frequency (f) in Hz, the mass of the substance per cm^3 of the solution (m), and the mass susceptibility of deuterium oxide (χ0=−0.6466×10^−6 cm^3/g). The last term in eq. SI is neglected due to the minimal contribution to mass susceptibility of solute. The molar susceptibility (χm) is the product of χg multiplied by the molecular weight of the [Co(TPT)]Cl2 complex. Reported value of the effective magnetic moment was obtained by averaging of three independent experiments. χg=(−3Δf)/(4πfm)+χ0+[χ0(d0−ds)]/m eq. 7 μeff=2.84(χmT)^1/2 eq. 8

[4] = Exchange rate constants (omega plot)
Protocol: Exchange rate constants were calculated following a previously reported procedure. Measurements of on-resonance (Mz) and off-resonance (Mo) were acquired at different presaturation pulse powers between 350-1000 Hz (8-24 μT) applied for 4 seconds at 37° C. The exchange rate constant (kex) is calculated from the x-intercept from the plot of Mz/(Mo−Mz) against 1/ω1^2 (ω1 in rad/s). The rate constant, kex, is converted into units of s^−1. Samples contained 10 mM Co^II complex, 20 mM HEPES pH 7.4, and 100 mM NaCl.
The exchange rate constants were calculated by using a previously reported procedure. The magnetization of the on-resonance (Mz) and off-resonance (Mo) were acquired at different pre-saturation pulse powers between 350-1090 Hz applied for 4 seconds. To calculate the exchange rate constant (kb), the x-intercept (−1/kb^2) was obtained from the plot of Mz/(Mo−Mz) against 1/ω1^2 (ω1 in rad/s). Samples contained 16 mM [Co(TPT)]Cl2, 200 mM NaCl, and 40 mM MES or HEPES at pH 6.4-7.5. Measurements were carried out at 37° C.

[5] = Oxidation in air / reduction with dithionite followed by 1H NMR; format: physicochemical

Row | Compound | redox potential [1] [mV] | reduction potential (Cyclic voltammetry) | second-order rate constant for reduction by dithionite ([2]; 200 mM NaCl, 40 mM HEPES, pH 7.0, 37° C.) [M⁻¹ s⁻¹] | second-order rate constant for oxidation by oxygen ([2]; 200 mM NaCl, 40.0 mM HEPES, pH 7.1, 25° C.) [M⁻¹ s⁻¹] | rate constant for oxidation of the Co(II) complex ([2]; ambient pressures of oxygen) [s⁻¹] | rate constant for reduction of Co(III) complex ([2]; excess dithionate) [s⁻¹] | rate constant for oxidation, extrapolated ([2]; hypoxic conditions, 10 mm Hg, 17 μM O2) [s⁻¹] | rate constant for oxidation, extrapolated ([2]; oxygen 100 mm Hg (0.17 mM O2), arterial blood) [s⁻¹] | rate constant for oxidation of the Co(II) complex ([2]; partial pressures of oxygen of 5%, in 1/s) | effective magnetic moment [3] [BM] | rate constant for proton exchange ([4]; pH 6.4, 37° C.) | rate constant for proton exchange ([4]; pH 6.9, 37° C.) | rate constant for proton exchange ([4]; pH 7.5, 37° C.) | stability towards oxidation in air (in words) [5]
1 | O=C([O-])CN1CCN(CC(=O)[O-])CCN(CC(=O)[O-])CC1.[Fe+3] [Fe(NOTA)] | 195 |  |  |  |  |  |  |  |  |  |  |  |  | 
2 | [Co+2].c1cc(CN2CCN(Cc3cc[nH]n3)CCN(Cc3cc[nH]n3)CC2)n[nH]1 [[Co(TPT)]^2+] |  | −107 mV and −107±11 mV | 0.24 | 0.43 | 5e-06 | 4e-05 | 7.3e-06 | 7.3e-05 | 2×10^−6 | 5.7±0.2 | 6,200 s^−1 | 9,200 s^−1 | 12,400 s^−1 | readily oxidize; also recorded: oxidizes in air to the Co(III) form
3 | [Fe+2].c1cc(CN2CCN(Cc3cc[nH]n3)CCN(Cc3cc[nH]n3)CC2)n[nH]1 [[Fe(TPT)]^2+] |  |  |  |  |  |  |  |  |  |  |  |  |  | readily oxidize
